# Laboratory results taken from patent publication US20200223889A1, “Bicyclic Compounds Capable of Binding to Melanocortin 4 Receptor” (Novo Nordisk A/S, priority 2017, published 2020).
# Where two headings read alike, the source gives them in different places. Positions of bridges follow the written chain, without caps; N, C: chain ends. Non-standard residues stand in square brackets, D forms with d. Residues, ends and D or L forms follow the SMILES beside them. Hyp = O=C(O)[C@@H]1C[C@@H](O)CN1; Orn = NCCC[C@H](N)C(=O)O; Thz = O=C(O)[C@@H]1CSCN1
# Legend:
# [1] = In vivo acute food intake model (BioDAQ) in C57BL/6J male mice; conditions: single subcutaneous dose 1 mg/kg, cumulative food intake
# Method: The MC4R system is central to appetite regulation and agonists are known inhibit food intake. In order to screen compounds in a relevant in vivo model, efficacy was assessed by determining the effect of the compound on reducing food intake acutely in mice.
# All animal protocols were approved by an Institutional Animal Care and Use Committee and Ethical Review Committee of Novo Nordisk. Animals were housed according to Novo Nordisk rodent housing standards, and were given ad libitum access to food and water under controlled lighting (12 h:12 h light/dark cycle; lights off 11:00-23:00), temperature (23±2° C.) and relative humidity (50±20%) conditions. For each acute food intake study C57BL/6J male mice (25-30 grams body weight) were acclimated for two weeks to the appropriate light cycle and to single-housing (one mouse per cage) in cages linked to a BioDAQ automated food intake system (Research Diets Inc., New Brunswick, N.J. USA). The animals were also acclimated to new food (Research Diets 12450B, 10% kcal fat) during this time.
# The BioDAQ is a computer automated scientific instrument for Biological Data Acquisition of food intake in rodents and measures food intake from each cage every 15 minutes. A total of 32 animals can be accommodated in the system per study, therefore, animals were randomized into 4 groups of n=8 for each study. […] Animals were fasted ˜4 hr prior to dosing. Vehicle (10 mM phosphate; 140 mM sodium chloride) or compound was dosed at a volume of 10 ml per kg subcutaneously approximately 20 minutes prior to the start of the dark cycle (compound chem no. and dosages are indicated in table 2 below). After dosing, food intake was recorded for approximately 24 hours.
# The inhibitory effect of compounds on food intake was generally well-correlated with in vitro binding affinity on the human MC4 receptor and with plasma stability of the compound. Most studies were conducted as dose response studies with vehicle and the compound at 3 doses (0.3, 1 and 3 mg/kg). Some studies were done for the purpose of dose-range finding, while others were done to comparatively assess the effect of 3 compounds at the same dose. Maximal effects on food intake occurred within the first 1-5 hours post-dose. The comparative effect of compounds across studies on food intake was assessed by normalizing measurements as % effect on cumulative food intake after a single subcutaneous dose, relative to vehicle. Results are reported in Table 2 as % effect on food intake at 3 hours post dose.
# [2] = biological target: T1, human MC4R (Homo sapiens, UniProt P32245); experiment: Functional cAMP assay (CisBio HTRF) in BHK cells expressing human MC4R; assay type: cell-based; conditions: for MC1R/MC4R cAMP EC50 ratio: MC1R cAMP EC50 divided by MC4R cAMP EC50
# T1 construct: expressed in transfected cells
# Method in brief: (§1)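 Stably transfected BHK cells expressing human MC1R or MC4R; cAMP quantified by HTRF (cAMP-d2/cryptate) after 30 min compound stimulation at 25 °C in DMEM-based buffer with 1 mM IBMX. Compounds were prepared as 10-fold serial dilutions starting at 2 μM (working solution, 2× final). Readout after 1 h at 25 °C; non-linear regression.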
# [3] = biological target: T1, human MC4R; experiment: 125NDP-α-MSH competitive binding to membranes of BHK cells expressing human MC4 receptor (filtration assay)
# Method in brief: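 Displacement of ^125NDP-α-MSH (apx. […] final) was measured by filtration after 2 h at 25 °C, using diluted membranes of stably transfected BHK cells in pH 7.0 HEPES buffer. Compounds spanned 1 μM to 0.001 nM; binding curves were analysed by non-linear regression.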
# [4] = biological target: T2, human MC1R (Homo sapiens, UniProt Q01726); experiment: Functional cAMP assay (CisBio HTRF) in BHK cells expressing human MC1R; assay type: cell-based; conditions: BHK cells expressing human MC1R; '>' = highest dose used with no response; read-out: MC1R cAMP EC50
# T2 construct: expressed in transfected cells
# Method in brief: as §1
# [5] = human MC4R, BHK cell membranes, 125NDP-α-MSH radioligand, read-out: MC4R binding Ki
# [6] = BHK cells expressing human MC4R, '>' = highest dose used with no response, read-out: MC4R cAMP EC50
# T1 sequence (P32245 whole entry): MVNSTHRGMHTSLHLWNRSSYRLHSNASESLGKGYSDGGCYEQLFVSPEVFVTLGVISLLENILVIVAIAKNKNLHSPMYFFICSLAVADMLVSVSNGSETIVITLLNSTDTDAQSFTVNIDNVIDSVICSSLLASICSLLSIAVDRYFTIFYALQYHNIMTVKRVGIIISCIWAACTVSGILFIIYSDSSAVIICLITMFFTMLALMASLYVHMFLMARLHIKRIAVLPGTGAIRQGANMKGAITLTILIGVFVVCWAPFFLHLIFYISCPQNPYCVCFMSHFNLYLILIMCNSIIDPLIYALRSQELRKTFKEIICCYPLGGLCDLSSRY
# T2 sequence (Q01726 whole entry): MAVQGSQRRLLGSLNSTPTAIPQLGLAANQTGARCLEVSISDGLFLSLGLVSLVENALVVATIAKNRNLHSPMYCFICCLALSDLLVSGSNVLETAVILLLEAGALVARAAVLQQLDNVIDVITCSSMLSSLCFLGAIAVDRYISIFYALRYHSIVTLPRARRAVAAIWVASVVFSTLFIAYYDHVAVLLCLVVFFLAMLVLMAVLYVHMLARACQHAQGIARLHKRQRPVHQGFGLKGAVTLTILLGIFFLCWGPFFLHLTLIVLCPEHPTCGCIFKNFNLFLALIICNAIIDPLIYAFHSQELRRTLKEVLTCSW
"Ki [3, 5]","EC50 [2, 6]",EC50 [4],Structure (SMILES),"% Effect on food intake at 3 hours post dose, relative to vehicle [1]",MC1R/MC4R cAMP EC50 ratio [2],Ki [3],EC50 [2]
0.04 nM,0.04 nM,,"C[C@@H]1NC(=O)[C@@H]2CSSC[C@H](NC(=O)[C@H](CCCNC(=N)N)NC(=O)[C@H](CCCCN)NC(=O)[C@H](CCCCN)NC(=O)[C@H](Cc3c[nH]cn3)NC1=O)C(=O)N1CCC[C@H]1C(=O)N[C@@H](Cc1c[nH]cn1)C(=O)N[C@H](Cc1ccccc1)C(=O)N[C@@H](Cc1c[nH]cn1)C(=O)N[C@@H](Cc1c[nH]c3ccccc13)C(=O)N2 [Chem. 96, c[c[Cys-Pro-His-D-Phe-His-Trp-Cys]- Ala-His-Lys-Lys-Arg]] (cyclo(AHKKRCPH[dF]HWC); disulfide 6-12)",−17 ± 14%,1442,,
1.21 nM,0.19 nM,30.2 nM,"C[C@@H]1NC(=O)[C@@H]2CSSC[C@H](NC(=O)[C@H](Cc3c[nH]c4ccccc34)NC(=O)[C@H](CCCNC(=N)N)NC(=O)[C@@H](Cc3ccccc3)NC(=O)[C@H](Cc3c[nH]cn3)NC1=O)C(=O)N1CCC[C@H]1C(=O)N1CCC[C@H]1C(=O)N[C@@H](CCC(=O)O)C(=O)N[C@@H](CCCNC(=N)N)C(=O)N[C@@H](Cc1c[nH]c3ccccc13)C(=O)N2 [Chem. 112, c[c[Cys-Ala-His-D-Phe-Arg-Trp-Cys]- Pro-Pro-Glu-Arg-Trp]] (cyclo(AH[dF]RWCPPERWC); disulfide 6-12)",,159,,

# Second part, the compound before the results:
Structure (SMILES),"Ki [3, 5]","EC50 [2, 6]",EC50 [4],"% Effect on food intake at 3 hours post dose, relative to vehicle [1]",MC1R/MC4R cAMP EC50 ratio [2],Ki [3],EC50 [2]
"NCCCC[C@@H]1NC(=O)[C@@H]2CSSC[C@H](NC(=O)[C@H](Cc3c[nH]c4ccccc34)NC(=O)[C@H](Cc3c[nH]cn3)NC(=O)[C@@H](Cc3ccccc3)NC(=O)[C@H](Cc3c[nH]cn3)NC1=O)C(=O)N[C@@H](CCCCN)C(=O)N[C@@H](Cc1c[nH]cn1)C(=O)N[C@H](Cc1ccccc1)C(=O)N[C@@H](Cc1c[nH]cn1)C(=O)N[C@@H](Cc1c[nH]c3ccccc13)C(=O)N2 [Chem. 52, c[c[Cys-Lys-His-D-Phe-His-Trp-Cys]- Lys-His-D-Phe-His-Trp]] (cyclo(CKH[dF]HWCKH[dF]HW); disulfide 1-7)",,,,−66 ± 9%,207,,
"C[C@@H]1NC(=O)[C@@H]2CSSC[C@H](NC(=O)[C@H](Cc3c[nH]c4ccccc34)NC(=O)[C@H](CCCCN)NC(=O)[C@H](CCCCN)NC(=O)[C@H](CCCCN)NC1=O)C(=O)N1C[C@H](O)C[C@H]1C(=O)N[C@@H](Cc1c[nH]cn1)C(=O)N[C@H](Cc1ccccc1)C(=O)N[C@@H](Cc1c[nH]cn1)C(=O)N[C@@H](Cc1c[nH]c3ccccc13)C(=O)N2 [Chem. 70, c[c[Cys-Hyp-His-D-Phe-His-Trp-Cys]- Ala-Lys-Lys-Lys-Trp]] (cyclo(AKKKWC[Hyp]H[dF]HWC); disulfide 6-12)",0.07 nM,0.38 nM,,−39 ± 10%,199,,
"C[C@@H]1NC(=O)[C@@H]2CSSC[C@H](NC(=O)[C@H](Cc3c[nH]c4ccccc34)NC(=O)[C@H](CCCCN)NC(=O)[C@H](CCCCN)NC(=O)[C@H](CCCCN)NC1=O)C(=O)N1CSC[C@H]1C(=O)N[C@@H](Cc1c[nH]cn1)C(=O)N[C@H](Cc1ccccc1)C(=O)N[C@@H](Cc1c[nH]cn1)C(=O)N[C@@H](Cc1c[nH]c3ccccc13)C(=O)N2 [Chem. 81, c[c[Cys-THAZ-His-D-Phe-His-Trp- Cys]-Ala-Lys-Lys-Lys-Trp]] (cyclo(AKKKWC[Thz]H[dF]HWC); disulfide 6-12)",,,,−72 ± 7%,957,0.03 nM,0.07 nM
"C[C@@H]1NC(=O)[C@@H]2CSSC[C@H](NC(=O)[C@H](CCCNC(=N)N)NC(=O)[C@H](CCCN)NC(=O)[C@H](CCC(=O)O)NC(=O)[C@H](Cc3c[nH]cn3)NC1=O)C(=O)N1CSC[C@H]1C(=O)N[C@@H](Cc1c[nH]cn1)C(=O)N[C@H](Cc1ccccc1)C(=O)N[C@@H](Cc1c[nH]cn1)C(=O)N[C@@H](Cc1c[nH]c3ccccc13)C(=O)N2 [Chem. 120, c[c[Cys-THAZ-His-D-Phe-His-Trp- Cys]-Ala-His-Glu-Orn-Arg]] (cyclo(AHE[Orn]RC[Thz]H[dF]HWC); disulfide 6-12)",,,,−28 ± 12%,3673,,0.08 nM
